Reference: patent US12459958B2, “Tricyclic compounds as HPK1 inhibitor and the use thereof” (BEIGENE, LTD., priority 2019, dated 2025)

Each molecule was assayed against T1, HPK1 kinase (aa1-346, Life Technologies) (Homo sapiens, UniProt Q92918) (assay: HPK Kinase Activity Assay at 1 mM ATP (TR-FRET)). Settings: HPK1 kinase 40 nM, 0.5 μM STK1 substrate, read-out: Enzymatic activity IC50.
T1 construct: HPK1 kinase (aa1-346, Life Technologies); purchased Life Technologies
T1 sequence (Q92918 1-346): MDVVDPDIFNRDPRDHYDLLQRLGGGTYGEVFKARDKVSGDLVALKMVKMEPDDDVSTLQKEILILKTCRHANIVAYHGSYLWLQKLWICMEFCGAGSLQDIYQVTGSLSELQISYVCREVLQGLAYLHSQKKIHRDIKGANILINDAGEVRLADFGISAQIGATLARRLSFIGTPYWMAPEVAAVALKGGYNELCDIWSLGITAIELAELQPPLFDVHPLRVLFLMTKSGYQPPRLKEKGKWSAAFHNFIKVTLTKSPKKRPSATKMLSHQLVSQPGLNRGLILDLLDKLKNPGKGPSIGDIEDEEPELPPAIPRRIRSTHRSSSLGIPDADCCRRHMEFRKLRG
Assay type: biochemical
Procedure: HPK Kinase Activity Assay at 1 mM ATP
Compounds disclosed herein were tested for inhibition of HPK1 kinase (aa1-346, Life Technologies) activity in assays based on the time-resolved fluorescence-resonance energy transfer (TR-FRET) methodology. The assays were carried out in 384-well low volume black plates in a reaction mixture containing HPK1 kinase (40 nM), 1 mM ATP, 0.5 μM STK1 substrate and 0-10 μM compound in buffer containing 50 mM HEPES, 0.01% BSA, 0.1 mM Orthovanadate, 10 mM MgCl2, 1 mM DTT, pH=7.0, 0.005% Tween-20. The kinase was incubated with the compounds disclosed herein or DMSO for 60 minutes at room temperature and the reaction was initiated by the addition of ATP and STK1 substrate. After reaction at room temperature for 120 minutes, an equal volume of stop/detection solution was added according to the manufacture's instruction (CisBio). The stop/detection solution contained STK Antibody-Cryptate and XL665-conjugated streptavidin in Detection Buffer. The TR-FRET signals (ratio of fluorescence emission at 665 nm over emission at 620 nm with excitation at 337 nm wavelength) were recorded on a PHERAstar FS plate reader (BMG Labtech). Phosphorylation of STK1 substrate led to the binding of STK Antibody-Cryptate to the biotinylated STK1 substrate, which places fluorescent donor (Eu^3+ crypate) in close proximity to the accepter (Streptavidin-XL665), thus resulting in a high degree of fluorescence resonance energy transfer. The inhibition of HPK1 in presence of increasing concentrations of compounds was calculated based on the ratio of fluorescence at 665 nm to that at 620 nm. The IC50 for each compound was derived from fitting the data to the four-parameter logistic equation by Graphpad Prism software.

| IC50 | SMILES |
| --- | --- |
| 52 nM | Cc1cc(-c2cnc3[nH]cc(-c4ccc(C(=O)N(C)CC(C)(C)O)cc4)c3n2)cc2c1N1CCN(C)C[C@@H]1CC2 [Example 12B, (S)-4-(2-(3,10-dimethyl-2,3,4,4a,5,6-hexahydro-1H-pyrazino[1,2-a]quinolin-8-yl)-5H-pyrrolo[2,3-b]pyrazin-7-yl)-N-(2-hydroxy-2-methylpropyl)-N-methylbenzamide] |
| 17 nM | Cc1cc(-c2cnc3[nH]cc(-c4ccc(C(=O)N(C)C[C@@H]5CCOC5)cc4)c3n2)cc2c1N1CCN(C)C[C@H]1CC2 [Example 10A, 4-(2-((R)-3,10-dimethyl-2,3,4,4a,5,6-hexahydro-1H-pyrazino[1,2-a]quinolin-8-yl)-5H-pyrrolo[2,3-b]pyrazin-7-yl)-N-methyl-N—(((S)-tetrahydrofuran-3-yl)methyl)benzamide] |
| 52 nM | Cc1cc(-c2cnc3[nH]cc(-c4ccc(C(=O)N(C)CC(C)(C)O)cc4)c3n2)cc2c1N1CCN(C)C[C@H]1CC2 [Example 12A, (R)-4-(2-(3,10-dimethyl-2,3,4,4a,5,6-hexahydro-1H-pyrazino[1,2-a]quinolin-8-yl)-5H-pyrrolo[2,3-b]pyrazin-7-yl)-N-(2-hydroxy-2-methylpropyl)-N-methylbenzamide] |
| 18 nM | Cc1cc(-c2cnc3[nH]cc(-c4ccc(C(=O)N(C)C[C@@H](C)O)cc4)c3c2)cc2c1N1CCN(C)C[C@@H]1CC2 [Example 3B, 4-(5-((S)-3,10-dimethyl-2,3,4,4a,5,6-hexahydro-1H-pyrazino[1,2-a]quinolin-8-yl)-1H-pyrrolo[2,3-b]pyridin-3-yl)-N—((R)-2-hydroxypropyl)-N-methylbenzamide] |
| 23 nM | Cc1cc(-c2cnc3[nH]cc(-c4ccc(C(=O)N(C)C)cc4)c3n2)cc2c1N1CCN(C)C[C@H]1CC2 [Example 7A, (R)-4-(2-(3,10-dimethyl-2,3,4,4a,5,6-hexahydro-1H-pyrazino[1,2-a]quinolin-8-yl)-5H-pyrrolo[2,3-b]pyrazin-7-yl)-N,N-dimethylbenzamide] |
| 47 nM | Cc1cc(-c2c[nH]c3ncc(-c4cc(C)c5c(c4)CC[C@H]4CN(C)CCN54)nc23)ccc1C(=O)N(C)C [Example 6B, (S)-4-(2-(3,10-dimethyl-2,3,4,4a,5,6-hexahydro-1H-pyrazino[1,2-a]quinolin-8-yl)-5H-pyrrolo[2,3-b]pyrazin-7-yl)-N,N,2-trimethylbenzamide] |
| 15 nM | Cc1cc(-c2cnc3[nH]cc(-c4ccc(C(=O)N(C)C[C@@H]5CCOC5)cc4)c3c2)cc2c1N1CCN(C)C[C@@H]1CC2 [Example 4B, 4-(5-((S)-3,10-dimethyl-2,3,4,4a,5,6-hexahydro-1H-pyrazino[1,2-a]quinolin-8-yl)-1H-pyrrolo[2,3-b]pyridin-3-yl)-N-methyl-N—(((S)-tetrahydrofuran-3-yl)methyl)benzamide] |
| 32 nM | Cc1cc(-c2cnc3[nH]cc(-c4ccc(C(=O)N(C)C[C@H]5CCOC5)cc4)c3c2)cc2c1N1CCN(C)C[C@H]1CC2 [Example 5A, 4-(5-((R)-3,10-dimethyl-2,3,4,4a,5,6-hexahydro-1H-pyrazino[1,2-a]quinolin-8-yl)-1H-pyrrolo[2,3-b]pyridin-3-yl)-N-methyl-N—(((R)-tetrahydrofuran-3-yl)methyl)benzamide] |
| 14 nM | Cc1cc(-c2cnc3[nH]cc(-c4ccc(C(=O)N(C)C[C@@H]5CCOC5)cc4)c3c2)cc2c1N1CCN(C)C[C@H]1CC2 [Example 4A, 4-(5-((R)-3,10-dimethyl-2,3,4,4a,5,6-hexahydro-1H-pyrazino[1,2-a]quinolin-8-yl)-1H-pyrrolo[2,3-b]pyridin-3-yl)-N-methyl-N—(((S)-tetrahydrofuran-3-yl)methyl)benzamide] |
| 52 nM | Cc1cc(-c2c[nH]c3ncc(-c4cc(C)c5c(c4)CC[C@@H]4CN(C)CCN54)nc23)ccc1C(=O)N(C)C[C@@H]1CCOC1 [Example 11A, 4-(2-((R)-3,10-dimethyl-2,3,4,4a,5,6-hexahydro-1H-pyrazino[1,2-a]quinolin-8-yl)-5H-pyrrolo[2,3-b]pyrazin-7-yl)-N,2-dimethyl-N—(((S)-tetrahydrofuran-3-yl)methyl)benzamide] |
| 21 nM | Cc1cc(-c2cnc3[nH]cc(-c4ccc(C(=O)N5CC6(COC6)C5)cc4)c3n2)cc2c1N1CCN(C)C[C@@H]1CC2 [Example 9B, (S)-(4-(2-(3,10-dimethyl-2,3,4,4a,5,6-hexahydro-1H-pyrazino[1,2-a]quinolin-8-yl)-5H-pyrrolo[2,3-b]pyrazin-7-yl)phenyl)(2-oxa-6-azaspiro[3.3]heptan-6-yl)methanone] |
| 19 nM | Cc1cc(-c2cnc3[nH]cc(-c4ccc(C(=O)N(C)C[C@H](C)O)cc4)c3c2)cc2c1N1CCN(C)C[C@@H]1CC2 [Example 2B, 4-(5-((S)-3,10-dimethyl-2,3,4,4a,5,6-hexahydro-1H-pyrazino[1,2-a]quinolin-8-yl)-1H-pyrrolo[2,3-b]pyridin-3-yl)-N—((S)-2-hydroxypropyl)-N-methylbenzamide] |
| 27 nM | Cc1cc(-c2cnc3[nH]cc(-c4ccc(C(=O)N(C)C[C@H]5CCOC5)cc4)c3c2)cc2c1N1CCN(C)C[C@@H]1CC2 [Example 5B, 4-(5-((S)-3,10-dimethyl-2,3,4,4a,5,6-hexahydro-1H-pyrazino[1,2-a]quinolin-8-yl)-1H-pyrrolo[2,3-b]pyridin-3-yl)-N-methyl-N—(((R)-tetrahydrofuran-3-yl)methyl)benzamide] |
| 36 nM | Cc1cc(-c2c[nH]c3ncc(-c4cc(C)c5c(c4)CC[C@@H]4CN(C)CCN54)nc23)ccc1C(=O)N(C)C [Example 6A, (R)-4-(2-(3,10-dimethyl-2,3,4,4a,5,6-hexahydro-1H-pyrazino[1,2-a]quinolin-8-yl)-5H-pyrrolo[2,3-b]pyrazin-7-yl)-N,N,2-trimethylbenzamide] |
| 53 nM | Cc1cc(-c2c[nH]c3ncc(-c4cc(C)c5c(c4)CC[C@H]4CN(C)CCN54)nc23)ccc1C(=O)N(C)C[C@@H]1CCOC1 [Example 11B, 4-(2-((S)-3,10-dimethyl-2,3,4,4a,5,6-hexahydro-1H-pyrazino[1,2-a]quinolin-8-yl)-5H-pyrrolo[2,3-b]pyrazin-7-yl)-N,2-dimethyl-N—(((S)-tetrahydrofuran-3-yl)methyl)benzamide] |
